Data taken from patent publication US20240139149A1, “THERAPEUTIC USES OF UROLITHIN DERIVATIVES” (Vandria SA, priority 2022, published 2024).

Key:
[1] = system: cortical neurons and microglial cells injured with Aβ1-42; assay: Rat primary culture of cortical neurons and microglial cells injured with Aβ1-42; type: cell-based
Protocol: Pregnant female rat (Wistar) of 15 days of gestation were killed using a deep anesthesia with CO2 chamber and a cervical dislocation. Fetuses were collected and immediately placed in ice-cold L15 Leibovitz medium with a 2% penicillin (10,000 U/mL) and streptomycin (10 mg/mL) solution (PS) and 1% bovine serum albumin (BSA). Cortex were specifically dissected and then were treated for 20 min at 37° C. with a trypsin-EDTA solution at a final concentration of 0.05% trypsin and 0.02% EDTA. The dissociation was stopped by addition of Dulbecco's modified Eagle's medium (DMEM) with 4.5 g/L of glucose, containing DNAse I grade II (final concentration 0.5 mg/mL) and 10% fetal calf serum (FCS). Cells were mechanically dissociated by three forced passages through the tip of a 10-mL pipette. Cells were then centrifuged at 515×g for 10 min at 4° C. The supernatant was discarded, and the pellet was resuspended in a defined culture medium consisting of Neurobasal medium with a 2% solution of B27 supplement, 2 mmol/liter of L-glutamine, 2% of PS solution, 10 ng/mL of brain-derived neurotrophic factor (BDNF), 2% of heat-inactivated horse serum, 2% of heat-inactivated FCS, 1 g/L of glucose, 1 mM of sodium pyruvate, and 100 μM of non-essential amino acids. The presence of serum in the medium allows the growth of the microglial cells. Viable cells were counted in a Neubauer cytometer, using the trypan blue exclusion test.
The cells were seeded at a density of 45 000 per well in 96-well plate precoated with poly-L-lysine and were cultured at 37° C. in an air (95%)—CO2 (5%) incubator. The medium was changed every 2 days.
On day 11 of culture, the compounds were dissolved in the appropriate vehicle and pre-incubated with the primary cortical neurons for one hour (1 h), before Aβ1-42 exposure.
On day 11 of culture, the cortical neurons were injured with the AP 1-42 peptide. AP 1-42 peptide was dissolved in the defined culture medium mentioned above, at an initial concentration of 20 μM. The solution was gently agitated for 3 days at 37° C. in the dark and immediately used after being properly diluted in culture medium to the concentration used (5 μM, 0.5 μM oligomers precisely evaluated by automatic WB). The AP 1-42 solution was applied on the culture at […] (0.5 μM oligomers, AβO), in presence of the compound, for 72 hours.
72 hours after the application of Aβ, the cell culture supernatant was removed. Cells were then washed with phosphate-buffered saline (PBS) and fixed with a cold solution of ethanol (95%) and acetic acid (5%) for 5 min at −20° C. After two washing steps with cold PBS, cells permeabilized and unspecific binding sites were blocked with a solution of PBS containing 0.1% of saponin and 1% of FCS, for 15 min at RT. Cells were incubated for 2 hours with: • a) Monoclonal anti-MAP2 antibody produced in mouse at dilution of 1/400 in PBS containing 1% FCS, 0.1% saponin, for 2 hours at room temperature. • b) Rabbit polyclonal antibody anti-SIRP alpha/CD172a (OX-41) at dilution of 1/400 in PBS containing 1% fetal calf serum and 0.1% of saponin (this antibody stains specifically the microglia and will allow to evaluate the activation of the microglial cells).
For each condition, 30 pictures (representative of the whole well area) were automatically taken using ImageXpress® (Molecular Devices) at 20× magnification using the same acquisition parameters. From images, the analyses were automatically performed by MetaXpress® (Molecular Devices). The following read-outs were measured: • Total neuron survival (number of MAP-2(+) neurons), • Total length of neurite network of MAP-2(+) neurons (in μm) • Total area of activated microglia (area of OX-41 signal, in μm^2)
All values are expressed as mean+/−SEM (standard error of the mean). Statistical analysis was performed by one-way ANOVA followed by Fisher's LSD test, with GraphPad Prism. p<0.05 was considered significant.

[2] = system: APTK organoids; assay: APTK tumor organoids treated with UA (lysosomes, mitochondria, MHC-I by flow cytometry); type: cell-based, mouse; settings: increasing concentrations of UA
Protocol: APTK colorectal organoids which harbor mutations for Apc, Trp53 and Tgfbr2 as well as expression of oncogenic KraSG12D were established and maintained as previously described (Nicolas et al., 2022; Varga et al., 2020). APTK organoids were seeded in 6 wells suspension plates: 6 droplets of 50 l Matrigel (Corning) per well were used. To generate OVA-APTK, colon organoids were isolated from unchallenged OVA mice (The Jackson Laboratory) as previously described (Nicolas et al., 2022). Liposomes CRISPR/Cas9 technology-based transfection was used for targeted knockout of the following mutated colorectal cancer-related genes: Apc (gRNA: […])(SEQ ID NO:1), Trp53 gRNA: […]) (SEQ ID NO:2), and Tgfbr2 (gRNA: […]) (SEQ ID NO:3) as previously described (Schwank and Clevers, 2016). Cas9 plasmid (Addgene; #41815) was used along gRNA plasmids generated from addgene #41819 plasmid by cloning the gRNA of interest instead of GFP targeting gRNA. Firstly, Apc knockout (A) organoids were functionally selected by the withdrawal of R-spondin from the culture medium. Secondly, Apc Trp53 (AT) knockout organoids were selected for Trp53 loss with 5 μM of MDM2 inhibitor (Nutlin-3) (Biomole, cat no. 10004372). Thirdly, Apc Trp53 Tgfbr2 (APT) knockout organoids were selected with […] recombinant TGFβ (R&D Systems; 7666-MB). Finally, KrasG12D gain of function mutation was obtained by overexpressing the active murine version of Kras gene (cloned in house based on Addgene plasmid #111164, Map-S5) in APT organoids. Apc, Trp53, Tgfbr2 and KrasG12D (APTK) OVA organoids were selected by 2 μg/mL puromycin (Merck; 58-58-2) and withdrawal of EGF and noggin from the culture medium. In order to study the effect of UA on lysosome formation, mitochondria reduction as well as antigen presentation, organoids were treated with 25-50 μM UA for 24-48 h. Organoids were subsequently stained with a MHC-I antibody (AF6-88.5; 116516; BioLegend), Mitotracker Deep Red (250 nm; ThermoFisher) and Lysotracker Red DND-99 (75 nM; ThermoFisher).

[3] = 123 and 370 nM, Aβ1-42 72 hours

Row | SMILES | microglial activation (conclusion) [1] | neuroprotection in the inflammatory in vitro model (conclusion) [1] | neurite network of cortical neurons (MAP-2) [1, 3] | survival of cortical neurons (MAP-2) [1, 3] | microglial activation (OX-41) ([1]; between 41.1 nM and 370 nM, Aβ1-42 72 hours) | MitoTracker staining [2] | formation of lysosomes (lysotracker) [2] | MHC-I expression ([2]; 48 hours)
1 | O=c1oc2cc(O)ccc2c2ccc(OC3CCOCC3)cc12 [compound 33, 3-hydroxy-8-((tetrahydro-2H-pyran-4-yl)oxy)-6H-benzo[c]chromen-6-one] | significantly reduce | neuroprotective | significantly protect | significantly protect | significant decrease | – | – | –
2 | O=c1oc2cc(O)ccc2c2ccc(O)cc12 [UA, Urolithin A] | – | – | – | – | – | loss of MitoTracker staining | dose-dependent formation of lysosomes | marked upregulation
